# Assay results taken from patent US11458138B2 (Novartis AG, priority 2017, dated 2022).
# How the values were obtained:
# [1] = test system: human corneal endothelial cells (CECs); assay: Human corneal endothelial cell population expansion: endothelial cell density in vitro; assay type: cell-based; conditions: 10 micromolar compound, X-VIVO15 medium, 10 days
# Method: (§1) Cells were cultured at 37° C. in 5% CO2.
# (§2) For each compound, two sets of cultures were generated. A first set of cultures was fixed in 4% PFA for 20 minutes at room temperature after cells isolated from the cornea had attached to the cell culture dish (typically 24 h after cell plating). A second set of cultures was fixed in 4% PFA for 20 minutes at room temperature 10 days after the first one.
# To measure cell density in all fixed cultures, the number of nuclei stained with Sytox Orange (ThermoFisher) were counted per surface area as follows: fixed cell cultures fixed were permeabilized in a solution of 0.3% Triton X-100 (Sigma-Aldrich). Cells were then labeled in a solution of 0.5 micromolar of Sytox Orange in PBS for 5 minutes at room temperature. Nuclei were counted under a Zeiss epifluorescence microscope. The expansion factor was then determined by calculating the ratio of the expanded population of cells to population of seeded cells.
# [2] = target: LATS1 (Homo sapiens (Human), UniProt O95835); assay: LATS1 biochemical assay (Table 1A, Compound Examples 1-290; method in the earlier part)
# [3] = test system: human limbal stem cells (LSCs); assay: Human limbal stem cell population expansion: expansion factor; assay type: cell-based; conditions: 10 micromolar, XVIVO15 medium, two passages, ratio of expanded to seeded cells
# Method: as §1
# as §2, with “temperature” for “temperature 10 days”, “being cultured for two passages. Cells were passaged when they reached 90-100% confluence.” for “the first one.”
# To evaluate cell expansion ratios, nuclei were counted using a Zeiss LSM 880 confocal microscope. The expansion factor was then determined by calculating the ratio of the expanded population of cells to population of seeded cells.
# [4] = test system: YAP nuclear translocation in HaCaT cells; assay: YAP Translocation Assay (HaCaT Cells); assay type: cell-based, human; conditions: Homo sapiens, 24 hours
# In short: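 HaCaT cells (20,000/well) in DMEM + 10% FBS were plated overnight at 37° C, then exposed to compound for 24 h at 37° C. Cells were fixed with PFA, permeabilized with 0.1% Triton/1.5% BSA and imaged by high-content imaging.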
# [5] = test system: Phospho-YAP (SER127) in HaCaT cells; assay: pYAP HTRF Assay (HaCaT Cells); assay type: cell-based, human; conditions: Homo sapiens, 2 hours
# In short: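 Phospho-YAP (Ser127) was measured by HTRF (665 nm/620 nm ratio) in HaCaT cells. Cells were grown 48 hours at 37° C at 5500 cells/well, exposed to compound for 2 hours, and incubated with detection reagents for 20 hrs at room temperature.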
# [6] = test system: human limbal stem cells (LSCs); assay: Human limbal stem cell population expansion, immunohistochemical observation of p63alpha; assay type: cell-based; conditions: for LSC colony formation and p63alpha expression: 10 micromolar, 6 days without passaging
# Method: Cells obtained as described in Example B1 were plated in 24-well plates (Corning) in limbal epithelium cell culture medium (DMEM F12 supplemented with 10% human serum and 1.3 mM calcium chloride) supplemented with LATS inhibitor compound example no. […] Cells were first cultured at 37° C. in 5% CO2 for 6 days after isolation without passaging (FIGS. 2A, 2B and 2C).
# To evaluate the ability of the compounds to enable LSC expansion after two passages, LSCs were passaged and cultured for two weeks in the presence of compound example 49 to enable expansion (FIG. 2D). Limbal stem cells (LSCs) were passaged by treating cultures with Accutase for 10 minutes at 37° C., rinsing the cell suspension by centrifugation and plating cells in fresh LSC culture medium supplemented with LATS inhibitor compound example 49.
# In order to observe that the expanded cell population expressed p63alpha, this was measured by immunohistochemistry as follows. Cell cultures were fixed with 4% PFA for 20 minutes, permeabilized and blocked in a blocking solution of 0.3% Triton X-100 (Sigma-Aldrich) and 3% donkey serum in PBS for 30 minutes. Cells were then labeled with primary antibody in the blocking solution for 12 hours at 4° C. Primary antibody used was p63alpha from Cell Signalling. Samples were washed in PBS three times and donkey-raised secondary antibody Alexa Fluor 488 (Molecular Probes) at 1:500 dilution were applied for 30 minutes at room temperature. Cells were counter-stained with a human nuclear antigen antibody (Millipore) at a 1:500 dilution in order to label all cells in the culture and confirm their human identity. […] Fluorescence was observed using a Zeiss LSM 880 confocal microscope.
# Sequence of LATS1 (O95835 whole entry, looked up): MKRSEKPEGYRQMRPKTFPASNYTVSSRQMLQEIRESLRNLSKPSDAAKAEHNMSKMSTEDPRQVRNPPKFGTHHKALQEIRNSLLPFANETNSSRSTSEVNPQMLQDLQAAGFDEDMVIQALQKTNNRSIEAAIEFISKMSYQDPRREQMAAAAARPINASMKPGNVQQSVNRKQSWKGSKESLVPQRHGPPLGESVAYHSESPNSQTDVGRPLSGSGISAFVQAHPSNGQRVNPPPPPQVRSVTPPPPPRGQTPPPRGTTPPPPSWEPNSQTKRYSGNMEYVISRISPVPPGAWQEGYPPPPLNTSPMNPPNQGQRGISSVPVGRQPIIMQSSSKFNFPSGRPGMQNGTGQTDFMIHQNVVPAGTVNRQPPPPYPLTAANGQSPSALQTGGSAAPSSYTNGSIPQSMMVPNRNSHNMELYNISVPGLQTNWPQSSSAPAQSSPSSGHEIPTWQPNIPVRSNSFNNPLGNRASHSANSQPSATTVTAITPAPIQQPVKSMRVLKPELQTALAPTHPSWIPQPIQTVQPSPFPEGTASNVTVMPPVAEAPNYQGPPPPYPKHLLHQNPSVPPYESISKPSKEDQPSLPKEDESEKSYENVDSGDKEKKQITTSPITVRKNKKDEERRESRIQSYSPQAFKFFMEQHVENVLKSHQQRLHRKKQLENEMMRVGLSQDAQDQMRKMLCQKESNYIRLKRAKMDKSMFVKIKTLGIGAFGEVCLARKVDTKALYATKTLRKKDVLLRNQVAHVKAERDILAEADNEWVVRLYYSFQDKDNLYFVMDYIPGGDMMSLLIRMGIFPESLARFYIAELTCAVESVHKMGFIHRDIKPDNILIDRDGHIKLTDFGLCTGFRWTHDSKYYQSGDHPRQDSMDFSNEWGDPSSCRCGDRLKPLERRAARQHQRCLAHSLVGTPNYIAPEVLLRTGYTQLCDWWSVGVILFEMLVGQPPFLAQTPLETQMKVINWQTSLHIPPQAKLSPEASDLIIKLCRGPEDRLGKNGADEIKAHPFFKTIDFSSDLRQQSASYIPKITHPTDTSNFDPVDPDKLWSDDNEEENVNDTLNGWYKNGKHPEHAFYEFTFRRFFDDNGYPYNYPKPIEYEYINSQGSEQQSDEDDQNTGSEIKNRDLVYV
# Sequence of LATS1 (Q7L9L4 whole entry partner, looked up): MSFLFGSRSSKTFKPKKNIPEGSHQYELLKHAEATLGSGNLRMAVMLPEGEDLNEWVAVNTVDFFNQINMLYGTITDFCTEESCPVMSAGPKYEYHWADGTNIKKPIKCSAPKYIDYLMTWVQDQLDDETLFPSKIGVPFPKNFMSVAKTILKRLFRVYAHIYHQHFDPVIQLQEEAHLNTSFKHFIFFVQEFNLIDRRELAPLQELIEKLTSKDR
SMILES,Endothelial Cell density in vitro [1] [cells/mm^2],IC50 [2] [nM],Expansion factor [3],EC50 [4] [nM],IC50 [5] [nM],LSC colony formation and p63alpha expression [6],LSC population expansion after passaging ([6]; passaged and cultured two weeks)
"CCCNc1nc(-c2ccncc2)nc2cnccc12 [Example 14, N-propyl-2-(pyridin-4-yl)pyrido[3,4-d]pyrimidin-4-amine]",3271,2,1423,4250,7310,–,–
"c1cc(-c2nc(NC3CCCC3)c3ccncc3n2)ccn1 [Example 65, N-cyclopentyl-2-(pyridin-4-yl)pyrido[3,4-d]pyrimidin-4-amine]",1702,2,1048,1990,895,–,–
"CC(C)(O)CC(C)(C)Nc1nc(-c2ccncc2)nc2cnccc12 [Example 49, 2,4-dimethyl-4-{[2-(pyridin-4-yl)pyrido[3,4-d]pyrimidin-4-yl]amino}pentan-2-ol]",3873,1,2029,1170,607,the cells formed colonies and expressed p63alpha,enabled cell population expansion and the formation of confluent cultures expressing p63alpha
"Cc1n[nH]cc1-c1nc(NC2(C)CC2)c2ccncc2n1 [Example 133, 2-(3-methyl-1H-pyrazol-4-yl)-N-(1-methylcyclopropyl)pyrido[3,4-d]pyrimidin-4-amine]",2028,2,1205,1670,414,the cells formed colonies and expressed p63alpha,–
"CC(C)(C)Nc1cc(-c2ccncc2)nc2cnccc12 [Example 261, N-(tert-butyl)-2-(pyridin-4-yl)-1,7-naphthyridin-4-amine]",4308,1,1717,1220,202,–,–
